Measurements reported in patent US9670261B2 (Sanofi, priority 2012, dated 2017).
Converted amounts (≈) assume the structure as drawn. *1 amine or outer side, *2 acyl side, *3 side chain or, on linkers, in order; H or OH if unused. Where a SMILES comes first, the peptide text is derived from it. Side-chain parts run from the residue outwards. [ ]: non-standard residue; d: D form. The star is where a group is joined. γGlu = O=C(O)[C@H](CCC(=O)[*:2])N[*:1]; Stearoyl = CCCCCCCCCCCCCCCCCC(=O)*; Palmitoyl = CCCCCCCCCCCCCCCC(=O)*; Aib = CC(C)(N)C(=O)O; GABA = NCCCC(=O)O

Key:
[1] = Pharmacokinetic testing in mice, s.c.; conditions: mouse, plasma, sc, 1 mg/kg
Procedure: Mice were dosed 1 mg/kg subcutaneously (s.c.). The mice were sacrified and blood samples were collected after 0.25, 0.5, 1, 2, 4, 8, 16 and 24 hours post application. Plasma samples were analyzed after protein precipitation via liquid chromatography mass spectrometry (LC/MS). PK parameters and half-life were calculated using WinonLin Version 5.2.1 (non-compartment model).

human GLP-1 receptor = target: T1, human GLP-1 receptor (Homo sapiens, UniProt P43220); test: cAMP response (HTRF) of HEK-293 cells stably expressing human GLP-1 receptor; format: cell-based; conditions: Table 7; cAMP formation; read-out: EC50 hGLP-1 R
T1 construct: expressed in transfected cells
T1 sequence (P43220 24-463): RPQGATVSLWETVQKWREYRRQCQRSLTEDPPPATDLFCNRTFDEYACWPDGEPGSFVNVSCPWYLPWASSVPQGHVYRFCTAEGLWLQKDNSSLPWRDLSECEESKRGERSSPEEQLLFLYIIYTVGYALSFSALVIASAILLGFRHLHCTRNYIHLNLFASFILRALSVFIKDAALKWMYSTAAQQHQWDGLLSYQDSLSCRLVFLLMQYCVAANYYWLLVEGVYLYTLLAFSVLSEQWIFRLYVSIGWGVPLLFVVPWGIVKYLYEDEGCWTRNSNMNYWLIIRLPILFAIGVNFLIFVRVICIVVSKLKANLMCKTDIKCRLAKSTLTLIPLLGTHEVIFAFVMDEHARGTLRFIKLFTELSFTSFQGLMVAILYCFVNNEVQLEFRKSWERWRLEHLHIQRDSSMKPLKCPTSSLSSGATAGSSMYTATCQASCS
How it was run: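 Stably transfected HEK-293 cells, accutase-harvested; assay buffer 1×HBSS/20 mM HEPES/0.1% BSA/2 mM IBMX; 400000 cells/ml; compound 30 min, RT; cAMP by HTRF kit.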

human GIP receptor = target: T2, human GIP receptor (Homo sapiens, UniProt P48546); test: cAMP response (HTRF) of HEK-293 cells stably expressing human GIP receptor; format: cell-based; conditions: Table 7; cAMP formation; read-out: EC50 hGIP R
T2 construct: expressed in transfected cells
T2 sequence (P48546 22-466): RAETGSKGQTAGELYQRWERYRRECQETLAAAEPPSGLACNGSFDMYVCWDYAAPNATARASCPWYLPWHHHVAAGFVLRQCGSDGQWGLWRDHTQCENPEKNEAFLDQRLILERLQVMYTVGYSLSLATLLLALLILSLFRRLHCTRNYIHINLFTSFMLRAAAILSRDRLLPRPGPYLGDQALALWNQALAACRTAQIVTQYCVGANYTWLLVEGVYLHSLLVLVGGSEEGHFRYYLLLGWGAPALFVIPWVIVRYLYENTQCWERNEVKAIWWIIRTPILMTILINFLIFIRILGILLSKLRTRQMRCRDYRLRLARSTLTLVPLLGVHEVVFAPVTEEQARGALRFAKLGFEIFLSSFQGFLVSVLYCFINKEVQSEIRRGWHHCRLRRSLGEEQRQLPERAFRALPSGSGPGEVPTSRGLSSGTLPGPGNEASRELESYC
Procedure: cAMP content of cells was determined using a kit from Cisbio Corp. (cat. no. 62AM4PEC) based on HTRF (Homogenous Time Resolved Fluorescence). For preparation, cells were split into T175 culture flasks and grown overnight to near confluency in medium (DMEM/10% FBS). Medium was then removed and cells washed with PBS lacking calcium and magnesium, followed by proteinase treatment with accutase (Sigma-Aldrich cat. no. A6964). Detached cells were washed and resuspended in assay buffer (1×HBSS; 20 mM HEPES, 0.1% BSA, 2 mM IBMX) and cellular density determined. They were then diluted to 400000 cells/ml and 25 μl-aliquots dispensed into the wells of 96-well plates. For measurement, 25 μl of test compound in assay buffer was added to the wells, followed by incubation for 30 minutes at room temperature.

[2] = Chemical stability in solution, 7 days at 25° C. (% remaining peptide); conditions: % remaining peptide after 7 days at 25° C.
Procedure: After that time course, the sample was centrifuged for 20 min at 4000 rpm and the supernatant was analysed with HPLC-UV. For determination of the amount of the remaining peptide, the peak areas of the target compound at t0 and t7 were compared, resulting in “% remaining peptide”, following the equation % remaining peptide=[(peak area peptide t7)×100]/peak area peptide t0.
The chemical stability is expressed as “% remaining peptide”.

[3] = Solubility testing in buffer (HPLC-UV); conditions: buffer

| SMILES | Cmax [1] | half-life [1] | EC50 (human GLP-1 receptor) | EC50 (human GIP receptor) | Stability (pH 4.5) ([2]; pH 4.5) | Stability (pH 7.4) ([2]; pH 7.4) | solubility at 2 h ([3]; pH 4.5) | solubility at 2 h ([3]; pH 7.4) |
| --- | --- | --- | --- | --- | --- | --- | --- | --- |
| CCCCCCCCCCCCCCCC(=O)N[C@@H](CCC(=O)NCCCC[C@H](NC(=O)[C@H](CCC(N)=O)NC(=O)[C@@H](NC(=O)[C@H](CO)NC(=O)[C@H](CC(C)C)NC(=O)[C@H](CC(=O)O)NC(=O)[C@H](CO)NC(=O)[C@@H](NC(=O)[C@H](Cc1ccccc1)NC(=O)[C@@H](NC(=O)CNC(=O)[C@H](CCC(N)=O)NC(=O)C(C)(C)NC(=O)[C@@H](N)Cc1ccc(O)cc1)[C@@H](C)O)[C@@H](C)O)[C@@H](C)CC)C(=O)N[C@@H](CCC(=O)O)C(=O)N[C@@H](CO)C(=O)N[C@@H](CCCNC(=N)N)C(=O)N[C@@H](C)C(=O)N[C@@H](C)C(=O)N[C@@H](CCC(N)=O)C(=O)N[C@@H](CC(=O)O)C(=O)N[C@@H](Cc1ccccc1)C(=O)N[C@H](C(=O)N[C@@H](CCC(=O)O)C(=O)N[C@@H](Cc1c[nH]c2ccccc12)C(=O)N[C@@H](CC(C)C)C(=O)N[C@@H](CCCCN)C(=O)N[C@@H](C)C(=O)NCC(=O)NCC(=O)N1CCC[C@H]1C(=O)N[C@@H](CO)C(=O)N[C@@H](CO)C(=O)NCC(=O)N[C@@H](C)C(=O)N1CCC[C@H]1C(=O)N1CCC[C@H]1C(=O)N1CCC[C@H]1C(=O)N[C@@H](CO)C(N)=O)[C@@H](C)CC)C(=O)O [SEQ ID NO: 32, Y-Aib-Q-G-T-F-T-S-D-L-S-I-Q-K(γE-x53)-ESRAAQDFIEWLKAGGPSSGAPPPS-NH2] (H-Y[Aib]QGTFTSDLSIQK([γGlu-Palmitoyl])ESRAAQDFIEWLKAGGPSSGAPPPS-NH2) | 5.52 µg/mL | 2.7 h | 8.4 pM | 7.1 pM |  |  |  |  |
| CCCCCCCCCCCCCCCCCC(=O)NCCCC(=O)NCCCC[C@H](NC(=O)[C@H](CCC(N)=O)NC(=O)[C@@H](NC(=O)[C@H](CO)NC(=O)[C@H](CC(C)C)NC(=O)[C@H](CC(=O)O)NC(=O)[C@H](CO)NC(=O)[C@@H](NC(=O)[C@H](Cc1ccccc1)NC(=O)[C@@H](NC(=O)CNC(=O)[C@H](CCC(=O)O)NC(=O)C(C)(C)NC(=O)[C@@H](N)Cc1ccc(O)cc1)[C@@H](C)O)[C@@H](C)O)[C@@H](C)CC)C(=O)N[C@@H](CCC(=O)O)C(=O)N[C@@H](CCCCN)C(=O)N[C@@H](CCCNC(=N)N)C(=O)N[C@@H](C)C(=O)N[C@@H](C)C(=O)NC(C)(C)C(=O)N[C@@H](CCC(=O)O)C(=O)N[C@@H](Cc1ccccc1)C(=O)N[C@H](C(=O)N[C@@H](CCC(=O)O)C(=O)N[C@@H](Cc1c[nH]c2ccccc12)C(=O)N[C@@H](CC(C)C)C(=O)N[C@@H](CCCCN)C(=O)N[C@@H](CC(N)=O)C(=O)N[C@H](C(=O)NCC(=O)N1CCC[C@H]1C(=O)N[C@@H](CO)C(=O)N[C@@H](CO)C(=O)NCC(=O)N[C@@H](C)C(=O)N1CCC[C@H]1C(=O)N1CCC[C@H]1C(=O)N1CCC[C@H]1C(=O)N[C@@H](CO)C(N)=O)[C@@H](C)O)[C@@H](C)CC [SEQ ID NO: 17, Y-Aib-E-G-T-F-T-S-D-L-S-I-Q-K(GABA-x70)-E-K-R-A-A-Aib-E-F-I-E-W-L-K-N-T-G-P-S-S-G-A-P-P-P-S-NH2] (H-Y[Aib]EGTFTSDLSIQK([GABA-Stearoyl])EKRAA[Aib]EFIEWLKNTGPSSGAPPPS-NH2) |  |  | 8.7 pM | 9.6 pM | 100.0% | 100.0% | 0.97 mg/mL (≈ 213 µM) | > 1 mg/mL |
